What was measured:
Test in all cases: selective drug sensitivity score (sDSS, relative to normal bone marrow) (sDSS (score)); higher = more potent and effective on the cell line relative to normal bone marrow cells
Settings in all cases: 72 h
COG-LL-355h = test system: COG-LL-355h
SEM cells = test system: SEM cells
KARPAS-45 = test system: KARPAS-45
MHH-CALL-2 = test system: MHH-CALL-2
KASUMI-10 = test system: KASUMI-10
KASUMI-2 = test system: KASUMI-2
MHH-CALL-4 = test system: MHH-CALL-4
TANOUE = test system: TANOUE
PF-382 = test system: PF-382
CCRF-CEM = test system: CCRF-CEM
SUP-B15 = test system: SUP-B15
NALM-6 = test system: NALM-6
TMD5 = test system: TMD5
NALM-16 = test system: NALM-16
NALL-1 = test system: NALL-1
RPMI-8402 = test system: RPMI-8402
ALL-SIL = test system: ALL-SIL
COG-LL-319h = test system: COG-LL-319h
697 = test system: 697
P30-OHKUBO = test system: P30-OHKUBO
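Note: ALL cell lines in 384-well plates, five doses spanning 10,000-fold, each plate scaled between vehicle and 100 µmol/L benzalkonium chloride controls, sDSS an adapted area-under-curve metric.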

Structure (SMILES) | selective drug sensitivity score (COG-LL-355h) | selective drug sensitivity score (SEM cells) | selective drug sensitivity score (KARPAS-45) | selective drug sensitivity score (MHH-CALL-2) | selective drug sensitivity score (KASUMI-10) | selective drug sensitivity score (KASUMI-2) | selective drug sensitivity score (MHH-CALL-4) | selective drug sensitivity score (TANOUE) | selective drug sensitivity score (PF-382) | selective drug sensitivity score (CCRF-CEM) | selective drug sensitivity score (SUP-B15) | selective drug sensitivity score (NALM-6) | selective drug sensitivity score (TMD5) | selective drug sensitivity score (NALM-16) | selective drug sensitivity score (NALL-1) | selective drug sensitivity score (RPMI-8402) | selective drug sensitivity score (ALL-SIL) | selective drug sensitivity score (COG-LL-319h) | selective drug sensitivity score 697 | selective drug sensitivity score (P30-OHKUBO)
Cc1c(C(=O)Nc2ccc(N3C[C@@H](C)O[C@@H](C)C3)nc2)cccc1-c1ccc(OC(F)(F)F)cc1 [Sonidegib] (top concentration 10000 nM) | -3.92 | -3.92 | 0.68 | 7.48 | 1.38 | -1.42 | 2.28 | -2.42 | 2.28 | -0.12 | 1.68 | 0.98 | -3.92 | -3.92 | 7.58 | 1.88 | 1.08 | 4.98 | 1.28 | 5.68
COc1cc2c(Oc3ccc(NC(=O)C4(C(=O)Nc5ccc(F)cc5)CC4)cc3F)ccnc2cc1OCCCN1CCOCC1 [Foretinib] (top concentration 1000 nM) | 0.34 | 20.9 | 2.44 | 7.04 | 17.8 | -2.96 | 1.64 | -4.46 | 0.34 | 0.64 | 8.74 | 0.74 | 2.64 | 1.04 | 1.74 | 0.34 | 13.6 | 3.44 | 2.24 | 0.54
CC1=NN(c2ccc(C(=O)O)cc2)C(=O)C1=Cc1ccc(-c2cc(C)c(C)cc2[N+](=O)[O-])o1 [C646] (top concentration 25000 nM) | 4.44 | -0.26 | 1.74 | -2.06 | -0.36 | 15.1 | -2.06 | -2.06 | 0.64 | 1.74 | 5.04 | -2.06 | -2.06 | -2.06 | -2.06 | -2.06 | 6.14 | 11.7 | 2.34 | 3.94
Cc1cc(Nc2ncc(Cl)c(Nc3ccccc3S(=O)(=O)C(C)C)n2)c(OC(C)C)cc1C1CCNCC1 [Ceritinib] (top concentration 2500 nM) | 2.86 | -3.44 | -2.54 | -0.04 | 0.36 | -3.44 | -0.74 | -3.44 | -3.24 | -3.34 | -3.44 | -0.74 | -3.44 | -3.44 | -2.14 | -1.84 | 4.36 | 6.66 | -2.24 | -2.44
Cc1cn(-c2cc(NC(=O)c3ccc(C)c(Nc4nccc(-c5cnccn5)n4)c3)cc(C(F)(F)F)c2)cn1 [Radotinib] (top concentration 10000 nM) | 0 | 0 | 0 | 10.1 | 0 | 0 | 0 | 1.3 | 0.2 | 0 | 36.2 | 0.9 | 22 | 0 | 0 | 3.3 | 43.3 | 13.2 | 5.7 | 5.1
CCCCc1nc2cc(/C=C/C(=O)NO)ccc2n1CCN(CC)CC [Pracinostat] (top concentration 10000 nM) | 3.58 | 5.28 | 9.78 | 8.98 | 6.18 | 12.5 | 6.28 | -7.72 | 3.38 | 4.68 | 5.98 | 2.78 | 5.78 | 0.98 | 3.18 | 5.08 | 5.18 | 10.1 | 7.68 | 5.68
Cn1cnc2c(F)c(Nc3ccc(Br)cc3F)c(C(=O)NOCCO)cc21 [Binimetinib] (top concentration 1000 nM) | 5.58 | -2.22 | -1.82 | 5.28 | 0.28 | -2.22 | 4.98 | -0.82 | -1.82 | 1.38 | 11.2 | 5.78 | 2.38 | -0.12 | -2.22 | -2.22 | -1.02 | 2.98 | -1.62 | -2.22
O=C(CCCCCCC(=O)Nc1ccc([C@H]2O[C@@H](CSc3nc(-c4ccccc4)c(-c4ccccc4)o3)C[C@@H](c3ccc(CO)cc3)O2)cc1)NO [Tubacin] (top concentration 10000 nM) | 7.14 | 9.44 | 5.04 | 7.74 | 4.54 | 4.14 | 7.84 | 2.74 | 8.14 | 8.74 | 16.5 | 9.94 | 12.9 | 7.14 | 7.54 | 7.64 | 9.84 | 15.9 | 8.54 | 7.44
Cn1nccc1Nc1nccc(-c2ccn([C@H](CO)c3ccc(Cl)c(F)c3)c(=O)c2)n1 [Ravoxertinib] (top concentration 10000 nM) | 7.7 | 0.7 | 2.4 | 8.4 | 5.2 | 4.2 | 11 | -3.2 | 1.2 | 2 | 12.6 | 4 | 3.2 | -1.6 | 10 | 1.9 | -3.2 | 10.2 | 1.5 | 3.5

Source: the supplement of paper PMC8967900
